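Tested at 5 concentrations; 48 h exposure; 96-well plates; endpoints linearly interpolated, else capped at highest concentration. TGI: concentration producing complete growth inhibition.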
Legend:
Test in all cases: DTP human tumour cell line panel, 48 h
786-0 renal = test system: 786-0 renal
A549 NSCLC = test system: A549 NSCLC
ACHN renal = test system: ACHN renal
BT-549 breast = test system: BT-549 breast
CAKI-1 renal = test system: CAKI-1 renal
CCRF-CEM leukemia = test system: CCRF-CEM leukemia
COLO 205 colon = test system: COLO 205 colon
DU-145 prostate = test system: DU-145 prostate
EKVX NSCLC = test system: EKVX NSCLC
HCC-2998 colon = test system: HCC-2998 colon
HCT-116 colon = test system: HCT-116 colon
HCT-15 colon = test system: HCT-15 colon
HOP-62 NSCLC = test system: HOP-62 NSCLC
HOP-92 NSCLC = test system: HOP-92 NSCLC
HS 578T breast = test system: HS 578T breast
HT29 colon = test system: HT29 colon
IGROV1 ovarian = test system: IGROV1 ovarian
K-562 leukemia = test system: K-562 leukemia
KM12 colon = test system: KM12 colon
LOX IMVI melanoma = test system: LOX IMVI melanoma
M14 melanoma = test system: M14 melanoma
MALME-3M melanoma = test system: MALME-3M melanoma
MCF7 breast = test system: MCF7 breast
MDA-MB-231 breast = test system: MDA-MB-231 breast
MDA-MB-435 = test system: MDA-MB-435
MDA-N = test system: MDA-N
MOLT-4 leukemia = test system: MOLT-4 leukemia
NCI-H226 lung = test system: NCI-H226 lung
NCI-H23 lung = test system: NCI-H23 lung
NCI/ADR-RES ovarian = test system: NCI/ADR-RES ovarian
OVCAR-3 ovarian = test system: OVCAR-3 ovarian
OVCAR-4 ovarian = test system: OVCAR-4 ovarian
OVCAR-5 ovarian = test system: OVCAR-5 ovarian
OVCAR-8 ovarian = test system: OVCAR-8 ovarian
PC-3 prostate = test system: PC-3 prostate
RPMI-8226 leukemia = test system: RPMI-8226 leukemia
RXF 393 renal = test system: RXF 393 renal
SF-268 CNS = test system: SF-268 CNS
SF-295 CNS = test system: SF-295 CNS
SF-539 CNS = test system: SF-539 CNS
SK-MEL-2 melanoma = test system: SK-MEL-2 melanoma
SK-MEL-28 melanoma = test system: SK-MEL-28 melanoma
SK-OV-3 ovarian = test system: SK-OV-3 ovarian
SN12C renal = test system: SN12C renal
SNB-19 CNS = test system: SNB-19 CNS
SNB-75 CNS = test system: SNB-75 CNS
SR leukemia = test system: SR leukemia
SW-620 colon = test system: SW-620 colon
T-47D breast = test system: T-47D breast
TK-10 renal = test system: TK-10 renal
U251 CNS = test system: U251 CNS
UACC-257 melanoma = test system: UACC-257 melanoma
UACC-62 melanoma = test system: UACC-62 melanoma

Compound: CCN(CC)CCC(=O)c1ccc(Oc2ccc(C)cc2)cc1
- TGI (786-0 renal): 30.1 µM
- TGI (A549 NSCLC): > 100 µM
- TGI (ACHN renal): 38.1 µM
- TGI (BT-549 breast): 32.7 µM
- TGI (CAKI-1 renal): 31.1 µM
- TGI (CCRF-CEM leukemia): 89.7 µM
- TGI (COLO 205 colon): 45.1 µM
- TGI (DU-145 prostate): 95.3 µM
- TGI (EKVX NSCLC): 38.2 µM
- TGI (HCC-2998 colon): 36.2 µM
- TGI (HCT-116 colon): 31.2 µM
- TGI (HCT-15 colon): 33.8 µM
- TGI (HOP-62 NSCLC): 39.3 µM
- TGI (HOP-92 NSCLC): 39.3 µM
- TGI (HS 578T breast): 44.6 µM
- TGI (HT29 colon): 35.6 µM
- TGI (IGROV1 ovarian): 35.7 µM
- TGI (K-562 leukemia): > 100 µM
- TGI (KM12 colon): 23.9 µM
- TGI (LOX IMVI melanoma): 31 µM
- TGI (M14 melanoma): 31.9 µM
- TGI (MALME-3M melanoma): 33.7 µM
- TGI (MCF7 breast): 32.9 µM
- TGI (MDA-MB-231 breast): 31 µM
- TGI (MDA-MB-435): 32 µM
- TGI (MDA-N): 31.5 µM
- TGI (MOLT-4 leukemia): 60.7 µM
- TGI (NCI-H226 lung): 86.8 µM
- TGI (NCI-H23 lung): 34.8 µM
- TGI (NCI/ADR-RES ovarian): 51.2 µM
- TGI (OVCAR-3 ovarian): 32.4 µM
- TGI (OVCAR-4 ovarian): 55.3 µM
- TGI (OVCAR-5 ovarian): 41 µM
- TGI (OVCAR-8 ovarian): 39.4 µM
- TGI (PC-3 prostate): 38.2 µM
- TGI (RPMI-8226 leukemia): 65.9 µM
- TGI (RXF 393 renal): 30.2 µM
- TGI (SF-268 CNS): 33.8 µM
- TGI (SF-295 CNS): 36.4 µM
- TGI (SF-539 CNS): 33.1 µM
- TGI (SK-MEL-2 melanoma): > 100 µM
- TGI (SK-MEL-28 melanoma): 30.5 µM
- TGI (SK-OV-3 ovarian): 88.7 µM
- TGI (SN12C renal): 30.4 µM
- TGI (SNB-19 CNS): 33.3 µM
- TGI (SNB-75 CNS): 35.7 µM
- TGI (SR leukemia): > 100 µM
- TGI (SW-620 colon): 33.8 µM
- TGI (T-47D breast): 40.2 µM
- TGI (TK-10 renal): 32.5 µM
- TGI (U251 CNS): 30.7 µM
- TGI (UACC-257 melanoma): 34.4 µM
- TGI (UACC-62 melanoma): 31.3 µM
